Test results published in publication PMC7069095, “A cell-permeable peptide-based PROTAC against the oncoprotein CREPT proficiently inhibits pancreatic cancer” (Theranostics, 2020).
Non-standard residues stand in square brackets, D forms with d. Residues, ends and D or L forms follow the SMILES beside them. Hyp = O=C(O)[C@@H]1C[C@@H](O)CN1; Ahx = NCCCCCC(=O)O

Assays:
AsPc-1 cells = experiment: Colony formation; assay type: cell-based; conditions: 10 μM, 500 cells per well, 8 days, than the control cells
Description: (§1) Cells were seeded into 6-well plates (500 cells per well) and cultured for 10 days, then washed with PBS and stained with 0.1% crystal violet. The number of colonies was counted by ImageJ and presented as the mean ± standard deviation (SD) from three individual experiments. […]
(§2) tumorigenesis in AsPc-1 and MIA PaCa-2 cells. (A-B) Colony formation of AsPc-1 respectively treated with deionized H2O (Ctrl), 10 μM PRTC, 10 μM PRTC-m and 10 μM PRTC-v. Cells were seeded into 6-well plates (500 cells per well) and cultured for 8 days.(C) CellproliferationassayofAsPc-1cellstreatedwith deionizedwater(Ctrl), 10μMPRTC,10μM PRTC-m and 10 μM PRTC-v.(D-E) Colony formation of MIA PaCa-2 respectively treated with deionized H2O (Ctrl), 10 μM PRTC, PRTC-m and PRTC-v.(F) Cell proliferation assay of MIA PaCa-2cells treatedwith deionizedH 2O(Ctrl),10μMPRTC, PRTC-mandPRTC-v. (G)Tumor volumesofxenografttumors,whichweremeasuredbycalipers. V=( a× b2)/2(V isvolume, a is the length of the tumor,b is the width of the tumor). (H) Cell proliferation assay of […]
(§3) is anormal pancreatic epithelial cell line.
(§4) (1 picture or pasted object on this page, not shown here)

MIA PaCa-2 cells = experiment: Colony formation; assay type: cell-based; conditions: 10 μM, than the control cells
Description: as §1, §2, §3, §4

For `CC[C@H](C)[C@H](N)C(=O)N[C@@H](Cc1ccc(O)cc1)C(=O)N1C[C@H](O)C[C@H]1C(=O)N[C@@H](C)C(=O)N[C@@H](CC(C)C)C(=O)NCCCCCC(=O)N[C@@H](CCCCN)C(=O)N[C@@H](CC(=O)O)C(=O)N[C@H](C(=O)N[C@@H](CC(C)C)C(=O)N[C@@H](CO)C(=O)N[C@@H](CCC(=O)O)C(=O)N[C@@H](CCCCN)C(=O)N[C@@H](CCC(=O)O)C(=O)N[C@@H](CCCCN)C(=O)N[C@@H](CCCCN)C(=O)N[C@@H](CC(C)C)C(=O)N[C@@H](CCC(=O)O)C(=O)N[C@@H](CCC(=O)O)C(=O)N[C@@H](Cc1ccc(O)cc1)C(=O)N[C@@H](CCCCN)C(=O)N[C@@H](CCC(N)=O)C(=O)N[C@@H](CCCCN)C(=O)N[C@@H](CC(C)C)C(=O)N[C@@H](C)C(=O)N[C@@H](CCCNC(=N)N)C(=O)N[C@H](C(=O)N[C@@H](CCCNC(=N)N)C(=O)N[C@@H](CCCNC(=N)N)C(=O)N[C@@H](CCCNC(=N)N)C(=O)N[C@@H](CCCNC(=N)N)C(=O)N[C@@H](CCCCN)C(=O)O)C(C)C)C(C)C` [PRTC] (H-IY[Hyp]AL[Ahx]KDVLSEKEKKLEEYKQKLARVRRRRK-OH; N-terminus and C-terminus assumed), the colony formation (AsPc-1 cells) was “fewer colonies” and the colony formation (MIA PaCa-2 cells) was “fewer colonies”.
